Tested on: 565726-208-R1-J5-PDC complex spheroids, growth inhibition
Experiment: Anticancer human tumor 565726-208-R1-J5-PDC patient-derived pancreatic adenocarcinoma cell line growth inhibition [RAS]
Conditions: for IC50: curve of first compound; for viability, T/C: stronger effect = lower value
In short: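 Multi-cell-type spheroids: tumor cells plus HUVEC endothelial cells and mesenchymal stem cells. RAS-pathway inhibitors were combined with targeted agents, each dosed in half-log steps down from clinical Cmax, or from 10 microM when Cmax was unknown.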

[1] = second compound 0.000949 µM, first compound 0.0316 µM
[2] = second compound 0.000949 µM, first compound 0.1 µM
[3] = second compound 0.000949 µM, first compound 0.316 µM
[4] = second compound 0.000949 µM, first compound 1 µM
[5] = second compound 0.000949 µM, first compound 3.16 µM
[6] = second compound 0.000949 µM, first compound 10 µM
[7] = second compound 0.003 µM, first compound 0.0316 µM
[8] = second compound 0.003 µM, first compound 0.1 µM
[9] = second compound 0.003 µM, first compound 0.316 µM
[10] = second compound 0.003 µM, first compound 1 µM
[11] = second compound 0.003 µM, first compound 3.16 µM
[12] = second compound 0.003 µM, first compound 10 µM
[13] = second compound 0.00949 µM, first compound 0.0316 µM
[14] = second compound 0.00949 µM, first compound 0.1 µM
[15] = second compound 0.00949 µM, first compound 0.316 µM
[16] = second compound 0.00949 µM, first compound 1 µM
[17] = second compound 0.00949 µM, first compound 3.16 µM
[18] = second compound 0.00949 µM, first compound 10 µM
[19] = second compound 0.03 µM, first compound 0.0316 µM
[20] = second compound 0.03 µM, first compound 0.1 µM
[21] = second compound 0.03 µM, first compound 0.316 µM
[22] = second compound 0.03 µM, first compound 1 µM
[23] = second compound 0.03 µM, first compound 3.16 µM
[24] = second compound 0.03 µM, first compound 10 µM
[25] = second compound 0.0949 µM, first compound 0.0316 µM
[26] = second compound 0.0949 µM, first compound 0.1 µM
[27] = second compound 0.0949 µM, first compound 0.316 µM
[28] = second compound 0.0949 µM, first compound 1 µM
[29] = second compound 0.0949 µM, first compound 3.16 µM
[30] = second compound 0.0949 µM, first compound 10 µM
[31] = second compound 0.3 µM, first compound 0.0316 µM
[32] = second compound 0.3 µM, first compound 0.1 µM
[33] = second compound 0.3 µM, first compound 0.316 µM
[34] = second compound 0.3 µM, first compound 1 µM
[35] = second compound 0.3 µM, first compound 3.16 µM
[36] = second compound 0.3 µM, first compound 10 µM
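Also: spheroids exposed to compounds for seven days before readout.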
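For viability, T/C in this document: 100% = DMSO vehicle control viability.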

CC(Nc1ccc2c(c1)OCCn1cc(N3C(=O)OCC3C(F)F)nc1-2)C(N)=O (centres undefined) + CCn1c(-c2cc(N3CCN(C)CC3)cnc2C(C)OC)c2c3cc(ccc31)-c1csc(n1)CC(NC(=O)C1CC1C)C(=O)N1CCCC(N1)C(=O)OCC(C)(C)C2
IC50 (second compound 0.000949 µM): 316 nM
IC50 (second compound 0.003 µM): < 31.6 nM
IC50 (second compound 0.00949 µM): < 31.6 nM
IC50 (second compound 0.03 µM): < 31.6 nM
IC50 (second compound 0.0949 µM): < 31.6 nM
IC50 (second compound 0.3 µM): < 31.6 nM
viability, T/C [1]: 62.7%
viability, T/C [2]: 49%
viability, T/C [3]: 50.6%
viability, T/C [4]: 47.7%
viability, T/C [5]: 40.2%
viability, T/C [6]: 32.9%
viability, T/C [7]: 49.7%
viability, T/C [8]: 48.4%
viability, T/C [9]: 39.7%
viability, T/C [10]: 37.2%
viability, T/C [11]: 36.3%
viability, T/C [12]: 24.2%
viability, T/C [13]: 44.5%
viability, T/C [14]: 37.4%
viability, T/C [15]: 32.9%
viability, T/C [16]: 29.6%
viability, T/C [17]: 26.4%
viability, T/C [18]: 19.5%
viability, T/C [19]: 31.9%
viability, T/C [20]: 26.9%
viability, T/C [21]: 26.8%
viability, T/C [22]: 24.9%
viability, T/C [23]: 22.4%
viability, T/C [24]: 13.3%
viability, T/C [25]: 24.8%
viability, T/C [26]: 24.6%
viability, T/C [27]: 23.1%
viability, T/C [28]: 18.5%
viability, T/C [29]: 18.4%
viability, T/C [30]: 12.1%
viability, T/C [31]: 22.6%
viability, T/C [32]: 20.9%
viability, T/C [33]: 20.1%
viability, T/C [34]: 19.3%
viability, T/C [35]: 15.6%
viability, T/C [36]: 10.7%

C[C@@H](NC(=O)c1ncnc(N)c1Cl)c1ncc(C(=O)Nc2cc(C(F)(F)F)c(Cl)cn2)s1 + CCn1c(-c2cc(N3CCN(C)CC3)cnc2C(C)OC)c2c3cc(ccc31)-c1csc(n1)CC(NC(=O)C1CC1C)C(=O)N1CCCC(N1)C(=O)OCC(C)(C)C2
IC50 (second compound 0.000949 µM): > 10000 nM
IC50 (second compound 0.003 µM): > 10000 nM
IC50 (second compound 0.00949 µM): < 31.6 nM
IC50 (second compound 0.03 µM): < 31.6 nM
IC50 (second compound 0.0949 µM): < 31.6 nM
IC50 (second compound 0.3 µM): < 31.6 nM
viability, T/C [1]: 65.1%
viability, T/C [2]: 73.5%
viability, T/C [3]: 76.7%
viability, T/C [4]: 69.5%
viability, T/C [5]: 72.1%
viability, T/C [6]: 58%
viability, T/C [7]: 61%
viability, T/C [8]: 57.5%
viability, T/C [9]: 57.3%
viability, T/C [10]: 58.1%
viability, T/C [11]: 56.8%
viability, T/C [12]: 46.5%
viability, T/C [13]: 48%
viability, T/C [14]: 48.2%
viability, T/C [15]: 49.9%
viability, T/C [16]: 48%
viability, T/C [17]: 52.5%
viability, T/C [18]: 40.8%
viability, T/C [19]: 34.9%
viability, T/C [20]: 39.1%
viability, T/C [21]: 36.2%
viability, T/C [22]: 37.4%
viability, T/C [23]: 40.3%
viability, T/C [24]: 31.4%
viability, T/C [25]: 31.2%
viability, T/C [26]: 32.2%
viability, T/C [27]: 31.7%
viability, T/C [28]: 32.5%
viability, T/C [29]: 32.9%
viability, T/C [30]: 29.1%
viability, T/C [31]: 24.6%
viability, T/C [32]: 27.8%
viability, T/C [33]: 26.7%
viability, T/C [34]: 29.8%
viability, T/C [35]: 31%
viability, T/C [36]: 28.2%

Reference: PubChem BioAssay AID2060899 (Molecular Pharmacology Branch, DTP, NCI, 2025)
